Paper PMC6923382, “Small molecules that inhibit TNF signalling by stabilising an asymmetric form of the trimer” (Nature Communications, 2019)

Columns and labels:
mouse TNF = target: T1, mouse TNF (Mus musculus, UniProt P06804); assay: TNF reporter gene assay HEK-293, mouse TNF; type: cell-based; settings: HEK-293 NF-kB reporter gene assay
T1 construct: stabilise an asymmetrical form of the soluble TNF trimer
T1 sequence (P06804 80-235 limits assumed): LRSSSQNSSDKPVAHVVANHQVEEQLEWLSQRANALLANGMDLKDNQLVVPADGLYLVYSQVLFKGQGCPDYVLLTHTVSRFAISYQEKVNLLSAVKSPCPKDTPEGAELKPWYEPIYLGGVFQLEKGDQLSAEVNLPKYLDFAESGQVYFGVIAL
Procedure: Stimulation of HEK-293 cells by TNF leads to activation of the NF-κB pathway. The HEK-Blue^TM CD40L SEAP (secreted embryonic alkaline phosphatase) reporter cell line used to determine TNF activity (InvivoGen, #hkb-CD40, cells were described as mycoplasma free when purchased and were tested using Mycoalert [Lonza] after each batch of assay vial preparation). Compounds were titrated in DMSO and pre-incubated with TNF at a concentration giving half maximal response (10 pM for human or 20 pM for mouse) or the anti-human TNFR1 agonist antibody (R&D Systems. #AF 225) for 1 h. Cells were added to the compound/stimulus mixture and further incubated for 18 h. SEAP was measured using the colorimetric substrate HEK-Blue Detect^TM or QUANTI-Blue^TM from InvivoGen. Percentage inhibitions for compound dilutions were calculated between a DMSO control and maximum inhibition (by excess anti-TNF biologic, or NF-κB inhibitor–TPCA-1 [Tocris #2559, R&D Systems]). The IC50 was determined as the point of inflexion between the fitted minimum and maximum of the compound dose response curve, calculated using 4PL fitted curve. Mean IC50s are reported as a mean of at least two experiments. Dose response curves for TNF and the anti-human TNFR1 agonist antibody are shown in Supplementary Fig. 9.

TNF = TNF (Homo sapiens, UniProt P01375); assay: TNF L929 cytotoxicity assay, human TNF; type: cell-based; set-up: stabilise an asymmetrical form of the soluble TNF trimer
Sequence of TNF (P01375 77-233 limits assumed): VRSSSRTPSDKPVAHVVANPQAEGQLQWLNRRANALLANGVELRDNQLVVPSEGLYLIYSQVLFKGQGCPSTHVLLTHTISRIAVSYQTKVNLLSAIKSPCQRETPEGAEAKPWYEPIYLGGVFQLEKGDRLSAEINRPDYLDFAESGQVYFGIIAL
Procedure: TNF (human or mouse) kills L929 cells which have been compromised by incubation with a sub-lethal concentration of actinomycin D, and this effect is inhibited with TNF biologics. Compounds were titrated in DMSO, and then pre-incubated with human or mouse TNF for 1 h. […] L929 cytotoxicity was measured by the addition of CellTitreGlo (Promega). Luminescence was measured after an incubation of at least 20 min in the dark. Percentage inhibition was calculated between unstimulated wells (maximum signal), and wells with TNF, DMSO and actinomycin D (minimum signal). The IC50 was calculated as the point of inflexion for a 4PL fitted curve. Mean IC50s are reported as a mean of at least two experiments.

Mouse TNF superfamily = assay: Thermal denaturation, mouse TNF superfamily; type: binding; settings: 100 µM compound, 0.1 mg/mL sample; single experiment
Procedure: A fluorescence probed thermal denaturation assay was performed to assess the effect of the compounds on the thermal stability of TNF (or other members of the TNF family) as a measure of compound binding. The reaction mixture contained 5 µL of 30× SYPRO® Orange dye (Invitrogen) and 5 µL of TNF (at 1 mg/mL), 37.5 μL PBS, pH 7.4 and 2.5 μL of compound (at 2 mM in DMSO). The mixture (10 µL) was dispensed in quadruplicate into a 384 PCR optical well plate and was run on a 7900HT Fast Real-Time PCR System ([…]). The PCR System heating device was set at 20 °C to 99 °C with a ramp rate of 1.1 °C min^−1; fluorescence changes in the wells were monitored by a CCD device. The fluorescence intensity increase was plotted as a function of temperature and the Tm calculated as the midpoint of this denaturation curve (determined as the point of inflection).
Compound based thermal stability increase (oC)
100 µM compound 0.1 mg/mL sample […]
compared to human TNF. Human proteins were provided through a collaboration with Beryllium. Data from a single experiment. […]
compared to mouse TNF. Mouse proteins were purchased from R&D Systems. (Note: No Tm for Lymphotoxin (LTa) was detected in this assay making a change in Tm unmeasurable).
Data from a single experiment.
(also on this page, place not known: 16.0Thermal 10Thermal stability difference (oC) stability increase (oC))

## Cc1ccc(C)c(Cn2c(C(O)c3ccncc3)nc3ccc(-c4cnn(C)c4)cc32)c1 (stereo not drawn) [UCB-9260]
Mouse TNF
  IC50: 95 nM
TNF; compound -logM 4.6
  Luminescence units: 12619 Luminescence units
TNF; compound -logM 5.08
  Luminescence units: 13471 Luminescence units
TNF; compound -logM 5.56
  Luminescence units: 13691 Luminescence units
TNF; compound -logM 6.03
  Luminescence units: 12384 Luminescence units
TNF; compound -logM 6.51
  Luminescence units: 8197 Luminescence units
TNF; compound -logM 6.99
  Luminescence units: 7043 Luminescence units
TNF; compound -logM 7.46
  Luminescence units: 6740 Luminescence units
TNF; compound -logM 7.94
  Luminescence units: 4803 Luminescence units
TNF; compound -logM 8.42
  Luminescence units: 3698 Luminescence units
TNF; compound -logM 8.9
  Luminescence units: 3202 Luminescence units
Mouse TNF superfamily
  change in Tm of other mouse TNF superfamily members: negligible effect
